Measured values taken from US20110077251A1, “NOVEL 17 BETA LUPANE DERIVATIVES” (priority 2009, published 2011).

test system: HIVIIIB; assay: HIV-1 replication in MT2 cell line with 30% human serum (RT activity in supernatant); format: cell-based; details: Human immunodeficiency virus 1, 120 h, MT2 cells, day 5 after infection, average if tested more than once, read-out: MT2 (HIVIIIB) with human serum IC50 range
Protocol: HIV-1 Replication in MT2 cell line with and without 30% human serum: The cells are infected at a Multiciplicity of Infection (MOI) of 0.5 for 3 h and then washed twice with complete media to remove residual virus. Cells are then resuspended at 0.5×10^6/ml in complete medium (RPMI, 10% FBS, 1% sodium pyruvate), and seeded into 96-well plates (6.25×10^4/well). The cells are cultured in the presence or absence of various concentrations of test compounds in serial dilutions for 3 days at 37° C. The test compounds are serially diluted in complete medium supplemented or not with 30% human serum. After 3 days, 100 μL of cultured medium with cells are replaced with 120 μL of freshly diluted test compounds in complete medium containing or not 30% Human serum. The level of HIV-1 replication is determined at days 5 after infection by the presence of viral RT activity in harvested supernatant fluid. The IC50 values for the virus replication are determined by using GRAPHPAD PRISM software.
The IC50 of the compounds tested in accordance with the HIV replication activity assay MT2 (HIVIIIB) with or without human serum are represented in Table 6.

| Compound | IC50 [nM] |
| --- | --- |
| C=C(C)[C@@H]1CC[C@]2(NC(=O)OC(C)(C)C)CC[C@]3(C)[C@H](CC[C@@H]4[C@@]5(C)CC[C@H](OC(=O)[C@H]6CC[C@@](C)(C(=O)O)C6(C)C)C(C)(C)[C@@H]5CC[C@]43C)[C@@H]12 [Cpd 8-3, 3β-O-[(1′S,3′R)-2′,2′,3′-Trimethyl-cyclopentane-3′-carboxylic acid-1′-carboxyl]-17β-tert-butyloxycarbonylamino-28-norlup-20(29)-ene] | > 1000 |
| C=C(C)[C@@H]1CC[C@]2(N)CC[C@]3(C)[C@H](CC[C@@H]4[C@@]5(C)CC[C@H](OC(=O)CC(C)(C)C(=O)O)C(C)(C)[C@@H]5CC[C@]43C)[C@@H]12 [Cpd 9-1, 17β-Amino-3β-O-(3′,3′-dimethylsuccinyl)-28-norlup-20(29)-ene] | < 199 |
| C=C(C)[C@@H]1CC[C@]2(N)CC[C@]3(C)[C@H](CC[C@@H]4[C@@]5(C)CC[C@H](OC(=O)[C@H]6CC[C@@](C)(C(=O)O)C6(C)C)C(C)(C)[C@@H]5CC[C@]43C)[C@@H]12 [Cpd 9-2, 3β-O-[(1′S,3′R)-2′,2′,3′-Trimethyl-cyclopentane-3′-carboxylic acid-1′-carboxyl]-17β-amino-28-norlup-20(29)-ene] | < 199 |
| C=C(C)[C@@H]1CC[C@]2(N)CC[C@]3(C)[C@H](CC[C@@H]4[C@@]5(C)CC[C@H](OC(=O)[C@H]6CCC[C@@H](C(=O)O)C6)C(C)(C)[C@@H]5CC[C@]43C)[C@@H]12 [Cpd 9-3, 3β-O-(cis-Cyclohexane-3′-carboxylic acid-1′-carboxyl)-17β-amino-28-norlup-20(29)-ene] | < 199 |
| C=C(C)[C@@H]1CC[C@]2(N(C)C)CC[C@]3(C)[C@H](CC[C@@H]4[C@@]5(C)CC[C@H](OC(=O)CC(C)(C)C(=O)O)C(C)(C)[C@@H]5CC[C@]43C)[C@@H]12 [Cpd 10-3, 3β-O-(3′,3′-Dimethylsuccinyl)-17β-dimethylamino-28-norlup-20(29)-ene] | < 199 |
| C=C(C)[C@@H]1CC[C@]2(NC(=O)N3CCCCC3)CC[C@]3(C)[C@H](CC[C@@H]4[C@@]5(C)CC[C@H](OC(=O)CC(C)(C)C(=O)O)C(C)(C)[C@@H]5CC[C@]43C)[C@@H]12 [Cpd 11-11, 3β-O-(3′,3′-Dimethylsuccinyl)-17β-[(piperidine-1-carbonyl)-amino]-28-norlup-20(29)-ene] | < 199 |
| C=C(C)[C@@H]1CC[C@]2(NC(=O)Nc3ccccc3)CC[C@]3(C)[C@H](CC[C@@H]4[C@@]5(C)CC[C@H](OC(=O)CC(C)(C)C(=O)O)C(C)(C)[C@@H]5CC[C@]43C)[C@@H]12 [Cpd 11-12, 3β-O-(3′,3′-Dimethylsuccinyl)-17β-(N′-phenyl-ureido)-28-norlup-20(29)-ene] | < 199 |
| C=C(C)[C@@H]1CC[C@]2(NC(=O)N(C)C)CC[C@]3(C)[C@H](CC[C@@H]4[C@@]5(C)CC[C@H](OC(=O)CC(C)(C)C(=O)O)C(C)(C)[C@@H]5CC[C@]43C)[C@@H]12 [Cpd 11-13, 3β-O-(3′,3′-Dimethylsuccinyl)-17β-(N′,N′-dimethyl-ureido)-28-norlup-20(29)-ene] | < 199 |
| C=C(C)[C@@H]1CC[C@]2(NC(=O)NCC3CCN(C)CC3)CC[C@]3(C)[C@H](CC[C@@H]4[C@@]5(C)CC[C@H](OC(=O)CC(C)(C)C(=O)O)C(C)(C)[C@@H]5CC[C@]43C)[C@@H]12 [Cpd 11-14, 3β-O-(3′,3′-Dimethylsuccinyl)-17β-[N′-(1-methyl-piperidin-4-ylmethyl)-ureido]-28-norlup-20(29)-ene] | < 199 |
| C=C(C)[C@@H]1CC[C@]2(NC(=O)Nc3nnc(C)o3)CC[C@]3(C)[C@H](CC[C@@H]4[C@@]5(C)CC[C@H](OC(=O)CC(C)(C)C(=O)O)C(C)(C)[C@@H]5CC[C@]43C)[C@@H]12 [Cpd 11-15, 3β-O-(3′,3′-Dimethylsuccinyl)-17β-[3-(5-methyl-[1,3,4]oxadiazol-2-yl)-ureido]-28-norlup-20(29)-ene] | < 199 |
| C=C(C)[C@@H]1CC[C@]2(NC(=O)NC(C)C)CC[C@]3(C)[C@H](CC[C@@H]4[C@@]5(C)CC[C@H](OC(=O)CC(C)(C)C(=O)O)C(C)(C)[C@@H]5CC[C@]43C)[C@@H]12 [Cpd 11-16, 3β-O-(3′,3′-Dimethylsuccinyl)-17β-(N′-isopropyl-ureido)-28-norlup-20(29)-ene] | 200 to 999 |
| C=C(C)[C@@H]1CC[C@]2(NC(=O)Nc3ccc(F)cc3)CC[C@]3(C)[C@H](CC[C@@H]4[C@@]5(C)CC[C@H](OC(=O)CC(C)(C)C(=O)O)C(C)(C)[C@@H]5CC[C@]43C)[C@@H]12 [Cpd 11-17, 3β-O-(3′,3′-Dimethylsuccinyl)-17β-(N′-4-fluorophenyl-ureido)-28-norlup-20(29)-ene] | < 199 |
| C=C(C)[C@@H]1CC[C@]2(NC(=O)NCc3ccc(F)cc3)CC[C@]3(C)[C@H](CC[C@@H]4[C@@]5(C)CC[C@H](OC(=O)CC(C)(C)C(=O)O)C(C)(C)[C@@H]5CC[C@]43C)[C@@H]12 [Cpd 11-18, 3β-O-(3′,3′-Dimethylsuccinyl)-17β-(N′-4-fluorophenylmethyl-ureido)-28-norlup-20(29)-ene] | < 199 |
| C=C(C)[C@@H]1CC[C@]2(NC(=O)Nc3nccs3)CC[C@]3(C)[C@H](CC[C@@H]4[C@@]5(C)CC[C@H](OC(=O)CC(C)(C)C(=O)O)C(C)(C)[C@@H]5CC[C@]43C)[C@@H]12 [Cpd 11-19, 3β-O-(3′,3′-Dimethylsuccinyl)-17β-(N′-thiazol-2-yl-ureido)-28-norlup-20(29)-ene] | < 199 |
| C=C(C)[C@@H]1CC[C@]2(NC(=O)NCC3CCCCC3)CC[C@]3(C)[C@H](CC[C@@H]4[C@@]5(C)CC[C@H](OC(=O)CC(C)(C)C(=O)O)C(C)(C)[C@@H]5CC[C@]43C)[C@@H]12 [Cpd 11-20, 3β-O-(3′,3′-Dimethylsuccinyl)-17β-(N′-cyclohexylmethyl-ureido)-28-norlup-20(29)-ene] | < 199 |
| C=C(C)[C@@H]1CC[C@]2(NC(=O)NCC3CCOCC3)CC[C@]3(C)[C@H](CC[C@@H]4[C@@]5(C)CC[C@H](OC(=O)CC(C)(C)C(=O)O)C(C)(C)[C@@H]5CC[C@]43C)[C@@H]12 [Cpd 11-21, 3β-O-(3′,3′-Dimethylsuccinyl)-17β-(N′-tetrahydropyran-4-ylmethyl-ureido)-28-norlup-20(29)-ene] | < 199 |
| C=C(C)[C@@H]1CC[C@]2(NC(=O)NC3CCCCC3)CC[C@]3(C)[C@H](CC[C@@H]4[C@@]5(C)CC[C@H](OC(=O)CC(C)(C)C(=O)O)C(C)(C)[C@@H]5CC[C@]43C)[C@@H]12 [Cpd 11-22, 3β-O-(3′,3′-Dimethylsuccinyl)-17β-(N′-cyclohexyl-ureido)-28-norlup-20(29)-ene] | < 199 |
| C=C(C)[C@@H]1CC[C@]2(NC(=O)N[C@@H](C)c3ccccc3)CC[C@]3(C)[C@H](CC[C@@H]4[C@@]5(C)CC[C@H](OC(=O)CC(C)(C)C(=O)O)C(C)(C)[C@@H]5CC[C@]43C)[C@@H]12 [Cpd 11-23, 3β-O-(3′,3′-Dimethylsuccinyl)-17β-(N′-(S)-1-phenyl-ethyl-ureido)-28-norlup-20(29)-ene] | < 199 |
| C=C(C)[C@@H]1CC[C@]2(NC(=O)NCC(C)C)CC[C@]3(C)[C@H](CC[C@@H]4[C@@]5(C)CC[C@H](OC(=O)CC(C)(C)C(=O)O)C(C)(C)[C@@H]5CC[C@]43C)[C@@H]12 [Cpd 11-24, 3β-O-(3′,3′-Dimethylsuccinyl)-17β-(N′-isobutylureido)-28-norlup-20(29)-ene] | < 199 |
| C=C(C)[C@@H]1CC[C@]2(NC(=O)NC3CCC(F)(F)CC3)CC[C@]3(C)[C@H](CC[C@@H]4[C@@]5(C)CC[C@H](OC(=O)CC(C)(C)C(=O)O)C(C)(C)[C@@H]5CC[C@]43C)[C@@H]12 [Cpd 11-25, 3β-O-(3′,3′-Dimethylsuccinyl)-17β-(N′-4,4-difluorocyclohexyl-ureido)-28-norlup-20(29)-ene] | < 199 |
| C=C(C)[C@@H]1CC[C@]2(NC(=O)Nc3ccncc3)CC[C@]3(C)[C@H](CC[C@@H]4[C@@]5(C)CC[C@H](OC(=O)CC(C)(C)C(=O)O)C(C)(C)[C@@H]5CC[C@]43C)[C@@H]12 [Cpd 11-26, 3β-O-(3′,3′-Dimethylsuccinyl)-17β-(N′-pyridin-4-yl-ureido)-28-norlup-20(29)-ene] | < 199 |
| C=C(C)[C@@H]1CC[C@]2(NC(=O)N[C@H](C)c3ccccc3)CC[C@]3(C)[C@H](CC[C@@H]4[C@@]5(C)CC[C@H](OC(=O)CC(C)(C)C(=O)O)C(C)(C)[C@@H]5CC[C@]43C)[C@@H]12 [Cpd 11-27, 3β-O-(3′,3′-Dimethylsuccinyl)-17β-(N′-(R)-1-phenyl-ethyl-ureido)-28-norlup-20(29)-ene] | < 199 |

same assay, conditions: MT2 cells, day 5 after infection, average if tested more than once, read-out: MT2 (HIVIIIB) with human serum IC50 range

| Compound | IC50 [nM] |
| --- | --- |
| 3β-O-(2′,2′-Dimethylsuccinyl)-17β-tert-butyloxycarbonylamino-28-norlup-20(29)-ene [Cpd 8-2] | > 1000 |
| C=C(C)C1CCC2(NCC3CC3)CCC3(C)C(CCC4C5(C)CCC(OC(=O)CC(C)(C)C(=O)O)C(C)(C)C5CCC43C)C12 (stereo not drawn) [Cpd 10-2, 17β-(Cyclopropylmethyl-amino)-3β-O-(3′,3′-dimethylsuccinyl)-28-norlup-20(29)-ene] | < 199 |
